Assay results taken from patent US20180078576A1, “SULPHATED XYLANS FOR TREATMENT OR PROPHYLAXIS OF RESPIRATORY DISEASES” (Paradigm Biopharmaceuticals Limited, priority 2007, published 2018).
pIC50: −log10 of the molar value.

Columns and labels:
eotaxin-2 = biological target: T1, eotaxin-2 (Homo sapiens, UniProt O00175); experiment: BIAcore inhibition of eotaxin-2 binding to immobilized heparin; conditions: BIAcore chip, FIG. 3E
T1 sequence (O00175 27-119): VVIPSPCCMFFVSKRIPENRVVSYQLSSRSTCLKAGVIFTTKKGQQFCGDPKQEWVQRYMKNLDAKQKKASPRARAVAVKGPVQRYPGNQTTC
Source text: The optical phenomenon of surface plasmon resonance is used to monitor physical interactions between molecules. Passing a solution of a potential protein ligand (e.g. IL-4, IL-5 or eotaxin) over a sensor surface to which a target (e.g. heparin) is coupled monitors the real-time binding of protein ligands to the immobilized target. Detection is achieved by measuring refractive index changes very close to the sensor surface. When the refractive index is altered, the angle at which plasmon resonance occurs changes and this change directly correlates with the amount of protein interacting with the surface. A BIAcore 2000 is conveniently used. […]
Biotinylated heparin is immobilized on the biosensor chip. […] Solutions containing potential protein ligands of interest are injected over the sensor chip surface, and the binding is measured in real time (Fernig, In: Proteoglycan protocols, Ed. R. V. Iozzo, Humana Press, Totowa, N.J., USA, 2001). Baculovirus expressed recombinant human IL-4 (rhIL-4) and baculovirus expressed recombinant human IL-5 (rhIL-5) readily bind to heparin immobilized by this method (see PCT/AU2005/000551). […] Similarly, recombinant human eotaxin (CCL11) expressed in E. coli binds readily to immobilized heparin and binding is specific as there is little eotaxin binding to sensor chips lacking heparin. […]

[1] = system: male C57Bl/6J mice exposed to cigarette smoke; experiment: Mouse model of emphysema/COPD, acute cigarette smoke exposure; format: in vivo; conditions: PPS inhaled 30 minutes before
Method: A mouse model of emphysema was used. Acute and chronic exposure of mice to cigarette smoke lead to lung responses that in part mimic the inflammatory and structural changes observed in COPD. In this model male C57Bl/6J mice are subjected to acute and chronic smoke exposure, with normal room air being the control situation. In the acute study mice were exposed to either room air or to the smoke of five cigarettes (approximately 12 mg of tar and 0.9 mg of nicotine) for 20 minutes. In the chronic study mice were exposed to either room air or to the smoke of three cigarettes/day for 5 days/week for 6 months. The 4 groups of mice were then further divided so that mice within each group also received PPS via an inhaled route.
In the acute exposure groups of mice pentosan polysulfate was given 30 minutes before exposure to cigarette smoke. Assessment of the efficacy of the drug for mice in the acute exposure groups involved assessment of trolox equivalent anti-oxidant capacity of the bronchoalveolar lavage fluid (BALF) at the end of smoke exposure. The BALF was examined for cytokines and chemokines that are associated with an inflammatory response. The levels of these agents were determined at 4 hours after exposure and at 24 hours after cigarette smoke exposure. A range of cytokines and chemokines was measured. […] A differential cell count of the cells in the BALF was also determined.

human IL-8 = biological target: T2, human IL-8 (Homo sapiens, UniProt P10145); experiment: IL-8 induced migration of DMSO treated HL-60 cells (chemotaxis); format: cell-based; conditions: 50 μg/ml, IL-8 20 ng/ml
T2 sequence (P10145 21-99): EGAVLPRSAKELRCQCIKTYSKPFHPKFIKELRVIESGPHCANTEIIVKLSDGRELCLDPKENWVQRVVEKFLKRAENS
Method: Chemokines known to play an important role in mediating the inflammation associated with COPD include IL-8, MCP-1 and MIP-1α (Barnes 2004, supra). […] These experiments were performed using DMSO treated human promyelocytic HL-60 cells. These cells were derived from a patient with acute promyelocytic leukemia. The cells were treated with DMSO (1.2%) for 4 days before being used in the experiments. The chemotaxis assays were performed in 96-well Costar chemotaxis plates consisting of a bottom chamber to which was added the human IL-8 (+/−inhibitor) and then cells in RPMI and 1% v/v FCS were added to a top chamber and the plate was incubated at 37° C. for 1 hour to allow cells to move from the top chamber into the bottom. The number of cells migrating into the bottom chamber was quantified by labeling with AQUEOUS ONE (20 μl/well) for 1.75 hours before absorbance at 490 nm is read. IL-8 was used at a final concentration of 20 ng/ml and the inhibitors were the sulfated xylan pentasaccharide (10 and 50 μg/ml) and pentosan polysulfate (10 and 50 μg/ml). Cell migration is compared with that seen with no IL-8 or with IL-8 and no inhibitor.

human MCP-1 = human MCP-1 (Homo sapiens, UniProt P13500); experiment: MCP-1 induced migration of THP-1 cells (chemotaxis); format: cell-based; conditions: 50 μg/ml, MCP-1 10 ng/ml
Method: These cells were originally derived from the peripheral blood of a patient with acute monocytic leukaemia. The assay was very similar to that described above. The chemotaxis assays were performed in 96-well Costar chemotaxis plates and human MCP-1 (+/−inhibitor) was added to the bottom chamber and the THP-1 cells in RPMI/1% FCS were added to the top chamber and the plate was incubated at 37° C. for 2.5 hour to allow cells to move from the top chamber into the bottom. The number of cells migrating into the bottom chamber was quantified by labeling with AQUEOUS ONE (30 μl/well) for 4 hours before absorbance at 490 run is read. MCP-1 was used at a final concentration of 10 ng/ml and the inhibitors were the sulfated xylan pentasaccharide (10 and 50 μg/ml) and PPS (10 and 50 μg/ml). In these experiments both PPS and the sulfated xylan pentasaccharide were effective, but PPS was a better inhibitor (FIG. 18) as at 50 μg/ml PPS inhibited cell movement by 89% whereas at the same concentration the sulfated xylan pentasaccharide cell movement by 53%.

human MCP-1, sequence (P13500 24-99): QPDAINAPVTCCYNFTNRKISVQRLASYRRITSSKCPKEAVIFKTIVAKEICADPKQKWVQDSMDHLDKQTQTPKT

## Pentosan polysulfate [PPS]
eotaxin-2
  pIC50: ~7.82
[1]
  Cellular infiltrate into BALF: decreased
  Numbers of neutrophils in BALF: significantly attenuated
Human IL-8
  Inhibition of cell migration triggered by IL-8: 74%
Human MCP-1
  Inhibition of cell movement induced by MCP-1: 89%
